{"source": "patent US12584173B2", "about": "“Methods for disease treatment and drug discovery” (The Scripps Research Institute, priority 2018, dated 2026)", "key": {"CFTR": {"target": "CFTR (Homo sapiens, UniProt P13569, DEL508-508)", "sequence (P13569 with tags, fused parts or gaps DEL508-508)": "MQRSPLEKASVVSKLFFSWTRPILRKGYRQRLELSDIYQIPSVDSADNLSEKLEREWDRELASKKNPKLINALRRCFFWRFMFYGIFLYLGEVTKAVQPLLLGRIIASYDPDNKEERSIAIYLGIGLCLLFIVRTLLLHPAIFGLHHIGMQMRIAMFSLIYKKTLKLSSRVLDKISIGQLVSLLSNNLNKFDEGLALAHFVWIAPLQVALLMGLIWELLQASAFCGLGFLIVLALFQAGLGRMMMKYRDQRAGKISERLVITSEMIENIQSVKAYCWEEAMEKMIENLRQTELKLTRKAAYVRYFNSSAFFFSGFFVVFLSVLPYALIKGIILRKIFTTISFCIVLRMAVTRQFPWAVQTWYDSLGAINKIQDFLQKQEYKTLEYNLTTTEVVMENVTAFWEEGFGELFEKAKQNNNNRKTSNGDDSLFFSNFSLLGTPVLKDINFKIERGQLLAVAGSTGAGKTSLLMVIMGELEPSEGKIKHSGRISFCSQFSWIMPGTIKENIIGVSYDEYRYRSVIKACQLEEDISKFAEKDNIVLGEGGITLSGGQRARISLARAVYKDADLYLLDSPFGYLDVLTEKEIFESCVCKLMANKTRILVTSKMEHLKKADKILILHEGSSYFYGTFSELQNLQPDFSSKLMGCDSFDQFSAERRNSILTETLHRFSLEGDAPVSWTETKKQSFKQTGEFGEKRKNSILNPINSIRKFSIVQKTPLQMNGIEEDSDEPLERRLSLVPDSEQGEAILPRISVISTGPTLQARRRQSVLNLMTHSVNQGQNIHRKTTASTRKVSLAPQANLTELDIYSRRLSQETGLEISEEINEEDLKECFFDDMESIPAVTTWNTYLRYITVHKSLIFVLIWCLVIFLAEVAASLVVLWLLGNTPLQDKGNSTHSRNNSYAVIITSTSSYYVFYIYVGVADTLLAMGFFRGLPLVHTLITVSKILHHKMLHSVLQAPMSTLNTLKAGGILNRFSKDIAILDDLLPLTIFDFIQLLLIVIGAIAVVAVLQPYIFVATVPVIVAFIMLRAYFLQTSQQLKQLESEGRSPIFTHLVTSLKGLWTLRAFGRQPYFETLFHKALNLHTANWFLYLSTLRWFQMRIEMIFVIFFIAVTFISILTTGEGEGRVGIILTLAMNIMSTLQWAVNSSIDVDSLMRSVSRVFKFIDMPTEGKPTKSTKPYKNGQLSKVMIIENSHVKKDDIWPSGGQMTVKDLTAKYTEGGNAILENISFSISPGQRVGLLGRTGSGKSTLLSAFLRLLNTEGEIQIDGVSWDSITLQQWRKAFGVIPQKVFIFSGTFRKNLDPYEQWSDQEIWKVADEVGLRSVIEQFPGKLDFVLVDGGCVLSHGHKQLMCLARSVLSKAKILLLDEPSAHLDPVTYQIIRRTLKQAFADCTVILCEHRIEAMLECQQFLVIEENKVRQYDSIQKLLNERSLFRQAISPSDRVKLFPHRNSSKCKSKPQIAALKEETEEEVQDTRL", "conditions": "cited from earlier work"}, "NPC1 [1]": {"tested_on": "NPC1", "experiment": "cholesterol storage in LE/LY by filipin staining, high content image analysis", "assay_type": "cell-based, human", "excerpt": "(§1) NPC1 is composed of multiple domains that harbor the different variants contributing to disease. Given the heterozygous allelic composition of most NPC1 primary fibroblasts that compromise interpretation of the impact of a specific allele on disease progression, we silenced NPC1 expression with shRNA to generate stable null cell lines. These null cell lines were transiently transfected with a sparse collection of plasmids that each harbor one of 48 distinct NPC1 disease-associated variants in NPC1 distributed among the various NPC1 domains. […] We binned this sparse collection of variants into 4 functional classes (Cass I-IV). Class I variants lack polypeptide expression in response to non-sense and/or splicing (truncation) mutations (null), Class II missense variants are largely ER retained (defined as <0.2 TrIdx), Class III missense variants show an intermediate level of trafficking (defined as 0.2 to 0.5 TrIdx) and Class IV missense variants have a level of trafficking >0.5 TrIdx indicating significant export from the ER. […] The impact of cholesterol (ChoI) storage in the LE/LY for each of these variants was measured using automated high content screening image analysis based on filipin staining.\n(§2) Each of the 48 NPC1 variants was examined for the impact of SAHA on both TrIdx and ChoI in the LE/LY. […] The effects of HDACi were NPC1-dependent as restoration of ChoI homeostasis by SAHA was not observed in fibroblasts lacking NPC1 and in null cell-lines lacking NPC1."}, "NPC1 [2]": {"tested_on": "NPC1", "experiment": "NPC1 variant trafficking index (TrIdx, endo H resistance) in NPC1 null cell lines", "assay_type": "cell-based, human", "excerpt": "as §1, §2"}, "NPC1 [3]": {"tested_on": "NPC1", "conditions": "cited from earlier work"}}}
{"smiles": "CC(C)(C)c1cc(C(C)(C)C)c(NC(=O)c2c[nH]c3ccccc3c2=O)cc1O", "note": "[Ivacaftor]", "values": [{"measurement": "effect on export or function of F508del", "setting": "CFTR", "result": "no effect"}]}
{"smiles": "O=C(CCCCCCC(=O)Nc1ccccc1)NO", "note": "[SAHA, Vorinostat]", "values": [{"measurement": "ChoI", "setting": "NPC1 [1]; NPC1 H510P", "result": "lack of significant correction"}, {"measurement": "ChoI", "setting": "NPC1 [1]; NPC1 P532L", "result": "improved"}, {"measurement": "cholesterol homeostasis", "setting": "NPC1 [1]; NPC1 R518Q", "result": "does not significantly improve"}, {"measurement": "response to treatment", "setting": "NPC1 [1]; NPC1 V950M, S954L, P1007A and T1036M (CLD5, late age of neurological onset cluster)", "result": "highly responsive"}, {"measurement": "restoration of ChoI homeostasis", "setting": "NPC1 [1]; fibroblasts lacking NPC1 and null cell-lines lacking NPC1", "result": "not observed"}, {"measurement": "cholesterol homeostasis of NPC1 variants", "setting": "NPC1 [1]; in all domains", "result": "significantly restored"}, {"measurement": "cholesterol storage state", "setting": "NPC1 [1]; variants along the predicted cholesterol flow path (R1077Q, Y1088C, W1145R, Y634C, P691S, L1191F)", "result": "improved to level of WT or even better than WT"}, {"measurement": "TrIdx", "setting": "NPC1 [2]; NPC1 H510P", "result": "inability of SAHA to improve"}, {"measurement": "TrIdx", "setting": "NPC1 [2]; NPC1 P532L", "result": "improved"}, {"measurement": "TrIdx", "setting": "NPC1 [2]; NPC1 R518Q", "result": "large improvement"}, {"measurement": "TrIdx class after treatment", "setting": "NPC1 [2]; majority of NPC1 variants with a TrIdx<0.2", "result": "at least a Class III TrIdx"}, {"measurement": "trafficking", "setting": "NPC1 [2]; variants involved in the predicted path of cholesterol flow, TM region", "result": "not changed"}, {"measurement": "correction of the I1061T phenotype (protein stabilized for export to LE/LY, improved cholesterol homeostasis)", "setting": "NPC1 [3]", "result": "correct the I1061T phenotype"}]}
